Laboratory results taken from ChEMBL document CHEMBL3616429, “Chemical structure and biological activity of a quorum sensing pheromone from Bacillus subtilis subsp. natto” (2015).
Activity calls are given as the source filed them. No cut-off for these calls is given here. *1 amine or outer side, *2 acyl side, *3 side chain or, on linkers, in order; H or OH if unused. Where a SMILES comes first, the peptide text is derived from it. [ ]: non-standard residue; d: D form. X1 = CC(C)=CCC/C(C)=C/CC/C(C)=C/C[C@]12C[C@@H](C(=O)[*:2])N([*:1])[C@@H]1Nc1ccccc12

Assays:
Type in all cases: functional
Bacillus subtilis [1] = assay: Induction of poly-gamma-glutamic acid production in Bacillus subtilis subsp. natto at >1 nM incubated for 72 hrs at 37 degC by ultra-filtration method
Bacillus subtilis [2] = assay: Induction of poly-gamma-glutamic acid production in Bacillus subtilis subsp. natto at 10 nM incubated for 72 hrs at 37 degC by ultra-filtration method
Bacillus subtilis [3] = assay: Induction of poly-gamma-glutamic acid production in Bacillus subtilis subsp. natto at 100 nM incubated for 72 hrs at 37 degC by ultra-filtration method
Bacillus subtilis [4] = assay: Induction of poly-gamma-glutamic acid production in Bacillus subtilis subsp. natto at 1000 nM incubated for 72 hrs at 37 degC by ultra-filtration method

CC[C@H](C)[C@H](NC(=O)[C@@H]1CCCN1C(=O)[C@@H]1CCCN1C(=O)[C@@H]1C[C@]2(C/C=C(\C)CC/C=C(\C)CCC=C(C)C)c3ccccc3N[C@H]2N1C(=O)[C@@H](N)CCCCN)C(=O)N[C@@H](CCC(=O)O)C(=O)O (H-K[X1]PPIE-OH)
Activity (Bacillus subtilis [1]): Active
Activity (Bacillus subtilis [2]): Active
fold change (FC) (Bacillus subtilis [3]): 2

H-KWPPIE-OH
Activity (Bacillus subtilis [4]): inactive
